Columns and labels:
OATP2B1 = biological target: T1, OATP2B1 (Homo sapiens, UniProt O94956); test: OATP2B1-mediated transport of substrate; format: in vitro ADME; conditions: Estimated; optimized to recover ~40% Fa
T1 sequence (O94956 1-709): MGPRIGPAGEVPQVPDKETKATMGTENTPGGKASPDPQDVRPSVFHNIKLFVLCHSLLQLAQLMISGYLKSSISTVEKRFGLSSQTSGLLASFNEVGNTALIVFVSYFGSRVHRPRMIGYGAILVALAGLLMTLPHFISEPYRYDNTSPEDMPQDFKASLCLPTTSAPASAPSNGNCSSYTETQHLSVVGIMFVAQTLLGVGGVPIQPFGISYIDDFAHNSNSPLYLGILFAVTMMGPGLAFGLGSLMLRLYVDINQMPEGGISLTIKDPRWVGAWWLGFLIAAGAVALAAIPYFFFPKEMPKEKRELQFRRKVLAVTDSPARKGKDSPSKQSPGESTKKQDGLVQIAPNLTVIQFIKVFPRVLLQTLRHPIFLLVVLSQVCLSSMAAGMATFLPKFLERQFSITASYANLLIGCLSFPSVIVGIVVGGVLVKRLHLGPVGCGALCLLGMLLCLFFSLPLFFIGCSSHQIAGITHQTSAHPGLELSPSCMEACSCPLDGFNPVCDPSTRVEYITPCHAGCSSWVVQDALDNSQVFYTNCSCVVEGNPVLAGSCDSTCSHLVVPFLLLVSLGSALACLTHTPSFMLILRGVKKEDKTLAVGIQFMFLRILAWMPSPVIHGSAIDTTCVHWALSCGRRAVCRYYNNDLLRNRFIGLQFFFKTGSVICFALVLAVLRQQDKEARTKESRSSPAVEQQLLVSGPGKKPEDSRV

[1] = system: OATP1B1, OATP1B3, and OATP2B1; test: SLC-phenotyping of hepatic uptake; format: in vitro ADME, human; conditions: SLC-phenotyping methodology
[2] = Passive transport clearance; format: in vitro ADME, human; conditions: Measured using SCHH
Caco-2 permeability = format: in vitro ADME; conditions: human
[3] = Physicochemical PBPK model inputs
[4] = cited from earlier work
OATP1B3 = biological target: T2, OATP1B3 (Homo sapiens, UniProt Q9NPD5); test: OATP1B3-mediated transport of substrate; format: in vitro ADME; conditions: OATP1B3-transfected HEK293 cells
T2 sequence (Q9NPD5 1-702): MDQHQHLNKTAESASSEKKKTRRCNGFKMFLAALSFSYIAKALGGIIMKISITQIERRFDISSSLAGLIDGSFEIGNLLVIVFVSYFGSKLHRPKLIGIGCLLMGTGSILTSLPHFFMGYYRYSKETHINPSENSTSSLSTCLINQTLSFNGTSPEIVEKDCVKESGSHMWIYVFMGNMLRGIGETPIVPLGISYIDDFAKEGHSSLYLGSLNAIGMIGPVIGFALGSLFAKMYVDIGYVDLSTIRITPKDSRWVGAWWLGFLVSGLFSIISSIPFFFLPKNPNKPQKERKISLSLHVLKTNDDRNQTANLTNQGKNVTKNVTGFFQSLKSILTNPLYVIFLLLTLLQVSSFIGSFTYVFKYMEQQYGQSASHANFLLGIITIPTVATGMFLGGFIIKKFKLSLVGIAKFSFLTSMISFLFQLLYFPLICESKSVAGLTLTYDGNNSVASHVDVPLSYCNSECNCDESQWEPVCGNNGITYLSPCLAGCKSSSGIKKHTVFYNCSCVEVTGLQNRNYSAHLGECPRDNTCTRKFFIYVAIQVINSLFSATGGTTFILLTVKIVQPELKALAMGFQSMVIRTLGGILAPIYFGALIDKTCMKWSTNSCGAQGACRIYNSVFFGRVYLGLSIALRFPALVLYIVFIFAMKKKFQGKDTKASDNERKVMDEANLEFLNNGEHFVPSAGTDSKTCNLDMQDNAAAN

BCRP [5] = biological target: T3, BCRP (Homo sapiens, UniProt Q9UNQ0); conditions: read-out: BCRP Km; membrane vesicle assay; cited from earlier work
T3 sequence (Q9UNQ0 1-655): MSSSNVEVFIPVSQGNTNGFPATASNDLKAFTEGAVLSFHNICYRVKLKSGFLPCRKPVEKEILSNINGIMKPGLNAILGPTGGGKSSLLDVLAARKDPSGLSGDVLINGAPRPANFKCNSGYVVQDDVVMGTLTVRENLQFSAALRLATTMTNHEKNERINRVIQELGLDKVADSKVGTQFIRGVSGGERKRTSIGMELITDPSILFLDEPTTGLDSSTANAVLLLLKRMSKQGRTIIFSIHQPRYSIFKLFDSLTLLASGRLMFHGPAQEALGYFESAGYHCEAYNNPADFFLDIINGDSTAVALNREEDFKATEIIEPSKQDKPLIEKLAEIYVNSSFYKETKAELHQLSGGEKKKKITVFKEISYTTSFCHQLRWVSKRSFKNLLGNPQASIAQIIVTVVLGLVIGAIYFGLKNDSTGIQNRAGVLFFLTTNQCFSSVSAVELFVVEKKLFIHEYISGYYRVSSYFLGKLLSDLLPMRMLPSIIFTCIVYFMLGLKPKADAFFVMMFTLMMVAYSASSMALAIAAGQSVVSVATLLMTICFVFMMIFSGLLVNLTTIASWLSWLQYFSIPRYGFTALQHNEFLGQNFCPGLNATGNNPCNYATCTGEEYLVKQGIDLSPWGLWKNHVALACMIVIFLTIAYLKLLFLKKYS

BCRP [6] = biological target: T3, BCRP; test: BCRP-mediated transport of substrate; format: in vitro ADME; conditions: Estimated; optimized to recover ~40% Fa

Intestinal OATP2B1 CLint,T (OATP2B1): 0.002 µL/min | share of active hepatic uptake driven by OATP1B1, OATP1B3, and OATP2B1 [1]: ~ 95% | CLPD basal (hepatic and renal) [2]: 1.1 µl/min/10^6 | Papp (Caco-2 permeability): 12 nm/s | pKa [3]: 4.33 | Km (OATP1B3): 28.3 µM | Intestinal BCRP Jmax (BCRP [6]): 380 pmol/min
Structure (SMILES): CC(C)c1nc(N(C)S(C)(=O)=O)nc(-c2ccc(F)cc2)c1/C=C/[C@@H](O)C[C@@H](O)CC(=O)O [Rosuvastatin, rosuvastatin]
contribution of OAT3-mediated active secretion to renal clearance [4]: greater than 90% | glomerular filtration rate [4]: ~ 0.22 ml/min/kg | renal clearance [4]: ~ 2.6 ml/min/kg | oral bioavailability ([4]; human, in vivo, po): ~ 20% | Km (BCRP [5]): 10.8 µM

From paper PMC8452302 (CPT: Pharmacometrics & Systems Pharmacology, 2021)
